According to patent US10039761B2, “Co-crystals and pharmaceutical compositions comprising the same” (Vertex Pharmaceuticals Incorporated, priority 2013, dated 2018):

Key:
[1] = tested on: ST-02-0004 primary GEJ tumor xenograft; assay: ST-02-0004 primary GEJ tumor xenograft efficacy with focused IR; format: in vivo; conditions: for % T/C (Day 45): 5 mg/kg paclitaxel, 25 mg/kg carboplatin q7dx3 (−[…])
Procedure: The in vivo activities of Compounds (1) and (2) were compared in combination with focused beam IR in a primary gastric cancer subcutaneous xenograft model. In the ST 02 0004 model, focused IR was administered on three consecutive days alone and in combination with Compound (1) or Compound (2).
The anti-tumor activity of Compound (2) in combination with focused-beam IR and the standard of care agents, paclitaxel and carboplatin, was also evaluated in the ST 02 0004 model. Treatment with paclitaxel, carboplatin, and IR was administered once per week for three weeks alone or in combination with Compound (2).
(§1) In Tables 14 and 15, for example, PO bid (0, 4 h) indicates Compound (2) is administered twice (bid) at time point 0 and then 4 hours after; IR (0.25 h) qdx3 indicates radiation is administered 15 minutes (0.25 h) after the administration of Compound (2) (0 h), and once a day for 3 days (qdx3); q7dx2 indicates once a week for two weeks; qod indicates every other day twice (e.g., Day 1 and Day 3); and paclitaxel q7dx3 (−0.25 h), carboplatin q7dx3 (−0.25 h) indicates administration of paclitaxel and carboplatin 15 minutes prior to the administration of Compound (2), followed by additional administration of Compound (2) after 4 hours after the first administration of Compound (2).

[2] = Body weight in LU-01-0030 xenograft studies; format: in vivo, mice; conditions: Day 34 study
Procedure: The in vivo efficacies of Compounds (1) and (2) were evaluated alone and in combination with three consecutive days of focused IR in the primary LU-01-0030 NSCLC subcutaneous xenograft model. The dose-dependent anti-tumor activity of Compound (2) alone and in combination with focused beam IR was evaluated in the LU-01-0030 model. […] Mice in the combination treatment groups were monitored (without treatment) for up to 90 days as some mice had no evidence of tumor burden.

[3] = Blood exposure in OD26749 bridging study; format: in vivo, nude mice; conditions: nude, mouse, whole blood; 100 mg/kg PO bid (0 and 4 h) combination groups with 2 Gy whole body IR
[4] = tested on: LU-01-0030 primary NSCLC subcutaneous xenograft; assay: LU-01-0030 primary NSCLC xenograft efficacy with focused IR; format: in vivo, mice
Procedure: The in vivo efficacies of Compounds (1) and (2) were evaluated alone and in combination with three consecutive days of focused IR in the primary LU-01-0030 NSCLC subcutaneous xenograft model. The dose-dependent anti-tumor activity of Compound (2) alone and in combination with focused beam IR was evaluated in the LU-01-0030 model.
as §1

[5] = Body weight in OE-19 xenograft studies; format: in vivo; conditions: PO 100 mg/kg bid (0, 4 h) q7dx2, 2 Gy IR q7dx2 ([…]); Day 7
Procedure: The OE-19 cell line xenograft model was used to evaluate the efficacy of Compounds (1) and (2) alone and in combination with IR. Two cycles of treatment were administered (Day 0 and Day 7) as performed in the OD26749 model above.

[6] = tested on: OD26749 primary NSCLC xenograft; assay: OD26749 primary NSCLC xenograft efficacy with whole body IR; format: in vivo, nude mice; conditions: bridging study; Compound (2) PO 50 mg/kg bid (0, 4 h), 2 Gy ([…]) qdx3
Procedure: The in vivo efficacies of Compounds (1) and (2) in combination with whole body IR were examined in the OD26749 primary NSCLC (non-small cell lung cancer) and the OE-19 GEJ cell line xenograft models. In these studies, Compounds (1) and (2) were formulated with 16% captisol/1% PVP/1% HPMC E5 pH2.
The in vivo efficacy of Compound (1) was evaluated in the primary OD26749 NSCLC subcutaneous xenograft model. […] […] Compound (1) was administered PO (tid at 0, 3, and 7 h) at 100 mg/kg alone or with a single 2 Gy dose of whole body IR at 3.25 h. […] Compound (1) in combination with 2 Gy whole body IR induced significant tumor regression (% T/Ti of −75; P<0.01) compared to IR alone.
The efficacies of Compounds (1) and (2) in combination with whole body IR (2 Gy) were evaluated in the OD26749 primary NSCLC xenograft model at a Compound ([…]) and Compound (2) dose levels of 50 mg/kg and 100 mg/kg PO bid (0 and 4 h). Two cycles of whole body IR (2 Gy) were given 15 min after the first compound administration (0.25 hour). Control animals were administered vehicle PO bid (0 and 4 h). […]
as §1

[7] = Body weight in OD26749 xenograft studies; format: in vivo, nude mice; conditions: bridging study; Compound (2) PO 50 mg/kg bid (0, 4 h), 2 Gy ([…]) qdx3; Day 1
primary human tumors = assay: Primary tumor chemosensitivity assay (TCA), Cell Titer-Glo, Bliss; format: cell-based; conditions: Compound (2) with bleomycin; gastric, pancreatic tumors
Procedure: Primary human tumors tested in vitro may provide a better indicator of efficacy of DNA PK inhibition than immortalized cancer cell lines due to their increased heterogeneity and closer proximity to the patient tumor from which they were derived. […] Dissociated cells from mouse-passaged tumors were cultured for 6 days after combination exposure and then assessed for viability using the Cell Titer-Glo assay. The Bliss Additivity statistical model was used to determine the degree of synergy, additivity, or antagonism of each combination treatment.

SMILES: [2H]c1nc(C)nc([2H])c1-c1cc(NC[C@@H](C)c2cccc3c(C(=O)NC)ccnc23)ncn1 [Compound (2), (S)-N-methyl-8-(1-((2′-methyl-4′,6′-dideutero-[4,5′-bipyrimidin]-6-yl)amino)propan-2-yl)quinoline-4-carboxamide]
- % T/C (Day 45) ([1]; 2 Gy IR qdx3 ([…]), Compound (2) PO 25 mg/kg bid (0, 4 h) qdx3): 11.1%
- % T/C (Day 45) ([1]; 2 Gy IR qdx3 ([…]), Compound (2) PO 50 mg/kg bid (0, 4 h) qdx3): 2.5%
- % T/C (Day 45) ([1]; Compound (2) PO 50 mg/kg bid (0, 4 h) qdx3, no IR): 95.4%
- % T/C (Day 34) ([1]; Compound (2) PO 25 mg/kg bid (0, 4 h) qdx3, 2 Gy IR qdx3 ([…])): 17.4%
- % T/C (Day 34) ([1]; Compound (2) PO 100 mg/kg bid (0, 4 h) qdx3, 2 Gy IR qdx3 ([…])): 9.2%
- % T/C (Day 34) ([1]; Compound (2) PO 100 mg/kg bid (0, 4 h) qdx3, no IR): 67.6%
- Max. body wt loss (%) ([2]; PO 25 mg/kg bid (0, 4 h) qdx3, 2 Gy IR ([…]) qdx3, Day 3): −6.59%
- Max. body wt loss (%) ([2]; PO 25 mg/kg qdx3, 2 Gy IR ([…]) qdx3, Day 1): −4.62%
- Max. body wt loss (%) ([2]; PO 50 mg/kg bid (0, 4 h) qdx3, 2 Gy IR ([…]) qdx3, Day 3): −6.93%
- Max. body wt loss (%) ([2]; PO 50 mg/kg bid (0, 4 h) qdx3, no IR, Day 9): −1.11%
- Max. body wt loss (%) ([2]; PO 50 mg/kg qdx3, 2 Gy IR ([…]) qdx3, Day 3): −4.66%
- AUC [3]: 58200 ng·h/mL
- % T/Ti (Day 34) ([4]; PO 25 mg/kg bid (0, 4 h) qdx3, 2 Gy IR ([…]) qdx3): −67.1%
- % T/Ti (Day 34) ([4]; PO 50 mg/kg bid (0, 4 h) qdx3, 2 Gy IR ([…]) qdx3): −96.3%
- % T/C (Day 34) ([4]; PO 50 mg/kg bid (0, 4 h) qdx3, no IR): 98.3%
- % T/Ti (Day 34) ([4]; PO 50 mg/kg qdx3, 2 Gy IR ([…]) qdx3): −96.9%
- Max. body wt loss (%) [5]: −6.50%
- % T/C (Day 22) [6]: 27.2%
- Max. body wt loss (%) [7]: −2.10%
- tumors additive or synergistic / tumors tested (primary human tumors): 20/20
- tumors strongly synergistic / tumors tested (primary human tumors): 3/20
